{"source": "PubChem BioAssay AID1963971", "about": "(Molecular Pharmacology Branch, DTP, NCI, 2024)", "tested_on": "953936-095-R-J2-PDC spheroids with HUVEC/MSC, viability", "experiment": "Anticancer human tumor 953936-095-R-J2-PDC patient-derived cervical squamous cell carcinoma cell line growth inhibition [PI3K]", "details": "for viability, T/C: stronger effect = lower value", "procedure,_shortened": "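Agents were dosed from a top concentration near clinical Cmax (otherwise 10 microM) in half-log decrements, alone or combined with PI3K inhibitors. The spheroids contain tumor cells plus endothelial (HUVEC) and MSC stroma; viability is measured.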", "key": {"[1]": {"details": "compound alone, run of 06/13/2023"}}, "note": "pIC50: −log10 of the molar value. Where “and” joins values, the source holds several entries; their conditions need not be identical. Identical values can stand only once.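 Note: spheroids exposed to compounds for seven days before read-out.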", "data": [{"smiles": "CC(Cn1ccc(-c2ccc(C#N)c(Cl)c2)n1)NC(=O)c1cc(C(C)O)[nH]n1", "note": "(stereo not drawn) + CC(Nc1ncnc2nc[nH]c12)c1cc2cccc(Cl)c2c(=O)n1-c1ccccc1", "values": [{"measurement": "pIC50", "setting": "curve of first compound, second compound 0.0316 µM", "value": "< 5.00"}, {"measurement": "pIC50", "setting": "curve of first compound, second compound 0.1 µM", "value": "< 5.00"}, {"measurement": "pIC50", "setting": "curve of first compound, second compound 0.316 µM", "value": "< 5.00"}, {"measurement": "pIC50", "setting": "curve of first compound, second compound 1 µM", "value": "< 5.00"}, {"measurement": "pIC50", "setting": "curve of first compound, second compound 3.16 µM", "value": "< 5.00"}, {"measurement": "pIC50", "setting": "curve of first compound, second compound 10 µM", "value": "< 5.00"}, {"measurement": "viability, T/C", "setting": "second compound 0.0316 µM, first compound 0.0316 µM", "value": 97.5, "unit": "%"}, {"measurement": "viability, T/C", "setting": "second compound 0.0316 µM, first compound 0.1 µM", "value": 100, "unit": "%"}, {"measurement": "viability, T/C", "setting": "second compound 0.0316 µM, first compound 0.316 µM", "value": 101, "unit": "%"}, {"measurement": "viability, T/C", "setting": "second compound 0.0316 µM, first compound 1 µM", "value": 91.1, "unit": "%"}, {"measurement": "viability, T/C", "setting": "second compound 0.0316 µM, first compound 3.16 µM", "value": 108, "unit": "%"}, {"measurement": "viability, T/C", "setting": "second compound 0.0316 µM, first compound 10 µM", "value": 96, "unit": "%"}, {"measurement": "viability, T/C", "setting": "second compound 0.1 µM, first compound 0.0316 µM", "value": 98.4, "unit": "%"}, {"measurement": "viability, T/C", "setting": "second compound 0.1 µM, first compound 0.1 µM", "value": 106, "unit": "%"}, {"measurement": "viability, T/C", "setting": "second compound 0.1 µM, first compound 0.316 µM", "value": 93.6, "unit": "%"}, {"measurement": "viability, T/C", "setting": "second compound 0.1 µM, first compound 1 µM", "value": 109, "unit": "%"}, {"measurement": "viability, T/C", "setting": "second compound 0.1 µM, first compound 3.16 µM", "value": 101, "unit": "%"}, {"measurement": "viability, T/C", "setting": "second compound 0.1 µM, first compound 10 µM", "value": 93.5, "unit": "%"}, {"measurement": "viability, T/C", "setting": "second compound 0.316 µM, first compound 0.0316 µM", "value": 107, "unit": "%"}, {"measurement": "viability, T/C", "setting": "second compound 0.316 µM, first compound 0.1 µM", "value": 85.7, "unit": "%"}, {"measurement": "viability, T/C", "setting": "second compound 0.316 µM, first compound 0.316 µM", "value": 90.8, "unit": "%"}, {"measurement": "viability, T/C", "setting": "second compound 0.316 µM, first compound 1 µM", "value": 88.6, "unit": "%"}, {"measurement": "viability, T/C", "setting": "second compound 0.316 µM, first compound 3.16 µM", "value": 92.8, "unit": "%"}, {"measurement": "viability, T/C", "setting": "second compound 0.316 µM, first compound 10 µM", "value": 93.4, "unit": "%"}, {"measurement": "viability, T/C", "setting": "second compound 1 µM, first compound 0.0316 µM", "value": 98.2, "unit": "%"}, {"measurement": "viability, T/C", "setting": "second compound 1 µM, first compound 0.1 µM", "value": 91.7, "unit": "%"}, {"measurement": "viability, T/C", "setting": "second compound 1 µM, first compound 0.316 µM", "value": 91.7, "unit": "%"}, {"measurement": "viability, T/C", "setting": "second compound 1 µM, first compound 1 µM", "value": 94.4, "unit": "%"}, {"measurement": "viability, T/C", "setting": "second compound 1 µM, first compound 3.16 µM", "value": 97.7, "unit": "%"}, {"measurement": "viability, T/C", "setting": "second compound 1 µM, first compound 10 µM", "value": 90.1, "unit": "%"}, {"measurement": "viability, T/C", "setting": "second compound 3.16 µM, first compound 0.0316 µM", "value": 83.7, "unit": "%"}, {"measurement": "viability, T/C", "setting": "second compound 3.16 µM, first compound 0.1 µM", "value": 73.6, "unit": "%"}, {"measurement": "viability, T/C", "setting": "second compound 3.16 µM, first compound 0.316 µM", "value": 72.2, "unit": "%"}, {"measurement": "viability, T/C", "setting": "second compound 3.16 µM, first compound 1 µM", "value": 75.9, "unit": "%"}, {"measurement": "viability, T/C", "setting": "second compound 3.16 µM, first compound 3.16 µM", "value": 79.9, "unit": "%"}, {"measurement": "viability, T/C", "setting": "second compound 3.16 µM, first compound 10 µM", "value": 70.7, "unit": "%"}, {"measurement": "viability, T/C", "setting": "second compound 10 µM, first compound 0.0316 µM", "value": 55.7, "unit": "%"}, {"measurement": "viability, T/C", "setting": "second compound 10 µM, first compound 0.1 µM", "value": 56, "unit": "%"}, {"measurement": "viability, T/C", "setting": "second compound 10 µM, first compound 0.316 µM", "value": 62.8, "unit": "%"}, {"measurement": "viability, T/C", "setting": "second compound 10 µM, first compound 1 µM", "value": 60.5, "unit": "%"}, {"measurement": "viability, T/C", "setting": "second compound 10 µM, first compound 3.16 µM", "value": 59.3, "unit": "%"}, {"measurement": "viability, T/C", "setting": "second compound 10 µM, first compound 10 µM", "value": 58.8, "unit": "%"}]}, {"smiles": "COc1c(OCCCN2CCOCC2)ccc2c3n(c(=NC(=O)c4cnc(N)nc4)nc12)CCN3", "values": [{"measurement": "viability, T/C", "setting": "compound 0.00316 µM", "value": "85% [middle of 8 runs]"}, {"measurement": "viability, T/C", "setting": "compound 0.01 µM", "value": "71.1% [middle of 8 runs]"}, {"measurement": "viability, T/C", "setting": "compound 0.0316 µM", "value": "39.5% [middle of 8 runs]"}, {"measurement": "viability, T/C", "setting": "compound 0.1 µM", "value": "17.8% [middle of 8 runs]"}, {"measurement": "viability, T/C", "setting": "compound 0.316 µM", "value": "5.89% [middle of 8 runs]"}, {"measurement": "viability, T/C", "setting": "compound 1 µM", "value": "1.69% [middle of 7 runs]"}, {"measurement": "IC50", "setting": "[1]", "value": "22.6 nM [middle of 6 runs]"}]}, {"smiles": "Cn1ncc(Cl)c1-c1cc(C(=O)NC(CN)Cc2cccc(F)c2)sc1Cl", "note": "(stereo not drawn)", "values": [{"measurement": "viability, T/C", "setting": "compound 0.0316 µM", "value": "93.5% [middle of 4 runs]"}, {"measurement": "viability, T/C", "setting": "compound 0.1 µM", "value": "82.7% [middle of 4 runs]"}, {"measurement": "viability, T/C", "setting": "compound 0.316 µM", "value": "64.7% [middle of 4 runs]"}, {"measurement": "viability, T/C", "setting": "compound 1 µM", "value": "37.6% and 37.7% (2×) and 35.5%"}, {"measurement": "viability, T/C", "setting": "compound 3.16 µM", "value": "21.1% [middle of 4 runs]"}, {"measurement": "viability, T/C", "setting": "compound 10 µM", "value": "13.2% and 12.6% (2×) and 13.7%"}, {"measurement": "IC50", "setting": "curve of compound", "value": "597 nM [middle of 4 runs]"}]}, {"smiles": "CC(Nc1ncnc2nc[nH]c12)c1cc2cccc(Cl)c2c(=O)n1-c1ccccc1", "note": "(stereo not drawn)", "values": [{"measurement": "viability, T/C", "setting": "compound 0.0316 µM", "value": "97.8% [middle of 8 runs]"}, {"measurement": "viability, T/C", "setting": "compound 0.1 µM", "value": "93.8% [middle of 8 runs]"}, {"measurement": "viability, T/C", "setting": "compound 0.316 µM", "value": "92.2% [middle of 8 runs]"}, {"measurement": "viability, T/C", "setting": "compound 1 µM", "value": "85.9% [middle of 8 runs]"}, {"measurement": "viability, T/C", "setting": "compound 3.16 µM", "value": "80% [middle of 8 runs]"}, {"measurement": "viability, T/C", "setting": "compound 10 µM", "value": "65% [middle of 8 runs]"}, {"measurement": "pIC50", "setting": "[1]", "value": "< 5.00"}]}]}
